Measurements taken from patent US9376418B2, “Substituted pyridine spleen tyrosine kinase (SYK) inhibitors” (Merck Sharp & Dohme Corp., priority 2012, dated 2016).

Each compound was assayed against T1, recombinant human GST-SYK (Homo sapiens, UniProt P43405) (assay: Homogeneous Time-Resolved Fluorescence (HTRF) assay for the recombinant human Syk enzyme). Conditions: HTRF assay, recombinant human GST-SYK; IC50 given as class symbols; read-out: rhSYK Activity.
T1 construct: purchased Carna Biosciences 08-176
Type: biochemical
Outline: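 GST-hSYK ([…]) was preincubated with inhibitor (0.1% DMSO final) for 10 minutes at room temperature in 15 mM Tris-HCl pH 7.5, 0.01% tween 20, 2 mM DTT. Biotinylated peptide (250 nM), 5 mM magnesium and 25 μM ATP started a 45-minute room-temperature reaction, read by time-resolved fluorescence.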
Compound Cc1cc(Nc2nccc(C(F)(F)F)n2)cc(-c2ccc(NC3(C(=O)O)CCC3)nc2)c1 [Example 7.78, 1-{[5-(3-methyl-5-{[4-(trifluoromethyl)pyrimidin-2-yl]amino}phenyl)pyridin-2-yl]amino}cyclobutanecarboxylic acid] has an IC50 of less than 100 nM.
With Cc1cc(Nc2nccc(C(F)(F)F)n2)cc(-c2ccc(N[C@H](Cc3csc4ccccc34)C(=O)O)nc2)c1 [Example 7.79, 3-(1-benzothiophen-3-yl)-N-[5-(3-methyl-5-{[4-(trifluoromethyl)pyrimidin-2-yl]amino}phenyl)pyridin-2-yl]-D-alanine] the IC50 was less than 100 nM.
For Cc1cc(Nc2nccc(C(F)(F)F)n2)cc(-c2ccc(NC3(C(=O)O)CCCC3)nc2)c1 [Example 7.80, 1-{[5-(3-methyl-5-{[4-(trifluoromethyl)pyrimidin-2-yl]amino}phenyl)pyridin-2-yl]amino}cyclopentanecarboxylic acid], the IC50 was less than 100 nM.
Cc1cc(Nc2nccc(C(F)(F)F)n2)cc(-c2ccc(NC3(C(=O)O)CC3)nc2)c1 [Example 7.81, 1-{[5-(3-methyl-5-{[4-(trifluoromethyl)pyrimidin-2-yl]amino}phenyl)pyridin-2-yl]amino}cyclopropanecarboxylic acid] gave an IC50 of 100 to 1000 nM.
In the case of Cc1cc(Nc2nccc(C(F)(F)F)n2)cc(-c2ccc(N3CCC3C(=O)O)nc2)c1 (centres unmarked) [Example 7.82, 1-[5-(3-methyl-5-{[4-(trifluoromethyl)pyrimidin-2-yl]amino}phenyl)pyridin-2-yl]azetidine-2-carboxylic acid], the IC50 is reported as less than 100 nM.
Compound Cc1cc(Nc2nccc(C(F)(F)F)n2)cc(-c2ccc(N3CCC[C@H]3C(=O)NCC(=O)O)nc2)c1 [Example 7.83, 1-[5-(3-methyl-5-{[4-(trifluoromethyl)pyrimidin-2-yl]amino}phenyl)pyridin-2-yl]-L-prolylglycine] has an IC50 of less than 100 nM.
Cc1cc(Nc2nccc(C(F)(F)F)n2)cc(-c2ccc(N3CCC[C@H]3C(=O)O)nc2)c1 [Example 7.84, 1-[5-(3-methyl-5-{[4-(trifluoromethyl)pyrimidin-2-yl]amino}phenyl)pyridin-2-yl]-L-proline] showed an IC50 of less than 100 nM.
Cc1cc(Nc2nccc(C(F)(F)F)n2)cc(-c2ccc(N3CCCC[C@@H]3C(=O)O)nc2)c1 [Example 7.85, (2R)-1-[5-(3-methyl-5-{[4-(trifluoromethyl)pyrimidin-2-yl]amino}phenyl)pyridin-2-yl]piperidine-2-carboxylic acid] showed an IC50 of less than 100 nM.
Cc1cc(Nc2nccc(C(F)(F)F)n2)cc(-c2ccc(N[C@@H](C)C(=O)O)nc2)c1 [Example 7.86, N-[5-(3-methyl-5-{[4-(trifluoromethyl)pyrimidin-2-yl]amino}phenyl)pyridin-2-yl]-L-alanine] was tested, and the IC50 was less than 100 nM.
Cc1cc(Nc2nccc(C(F)(F)F)n2)cc(-c2ccc(NCC(=O)O)nc2)c1 [Example 7.87, N-[5-(3-methyl-5-{[4-(trifluoromethyl)pyrimidin-2-yl]amino}phenyl)pyridin-2-yl]glycine] gave an IC50 of less than 100 nM.
In the case of Cc1cc(Nc2nccc(C(F)(F)F)n2)cc(-c2ccc(NCCC(=O)O)nc2)c1 [Example 7.88, N-[5-(3-methyl-5-{[4-(trifluoromethyl)pyrimidin-2-yl]amino}phenyl)pyridin-2-yl]-beta-alanine], the IC50 is reported as less than 100 nM.
With Cc1cc(Nc2nccc(C(F)(F)F)n2)cc(-c2ccc(N[C@H](C)C(=O)O)nc2)c1 [Example 7.89, N-[5-(3-methyl-5-{[4-(trifluoromethyl)pyrimidin-2-yl]amino}phenyl)pyridin-2-yl]-D-alanine] the IC50 was less than 100 nM.
For Cc1cc(Nc2nccc(C(F)(F)F)n2)cc(-c2ccc(N[C@@H](C(=O)O)C(C)C)nc2)c1 [Example 7.90, N-[5-(3-methyl-5-{[4-(trifluoromethyl)pyrimidin-2-yl]amino}phenyl)pyridin-2-yl]-D-valine], the IC50 was less than 100 nM.
Cc1cc(Nc2nccc(C(F)(F)F)n2)cc(-c2ccc(N[C@H](C(=O)O)C(C)C)nc2)c1 [Example 7.91, N-[5-(3-methyl-5-{[4-(trifluoromethyl)pyrimidin-2-yl]amino}phenyl)pyridin-2-yl]-L-valine] was tested, and the IC50 was less than 100 nM.
